Source: publication PMC9032934 (Pharmaceutics, 2022)
Non-standard residues stand in square brackets, D forms with d. Residues, ends and D or L forms follow the SMILES beside them.

What was measured:
[1] = test system: Caco-2 cells; assay: Cell viability by DAPI labeling in flow cytometry, Caco-2; settings: CPZ 20 μM, NYS 50 μM, MBCD 5 mM, compared to non-treated cells (80 ± 10%)
Protocol: At the end of each incubation, cells were rinsed twice with D-PBS. […] After the addition of 400 μL of D-PBS supplemented with 5% (v/v) FBS, cells were transferred to 1.5 mL tubes and centrifuged (10 min, 4 °C, 1500 rpm). Cell pellets were resumed in 500 μL of D-PBS supplemented with 0.5% (v/v) FBS and 0.1% (v/v) 4′,6-diamidino-2-phenylindole (DAPI solution, Sigma-Aldrich, (Saint-Quentin-Fallavier, France), transferred to round-bottom polystyrene Falcon tubes (Thermo Fisher Scientific Inc., Rockford, IL, USA) and analyzed with a Fortessa LSR cytometer (Becton Dickinson, Pont-de-Claix, France; DAPI: λex = 405 nm/λem = 425–475 nm; TAMRA: λex = 561 nm/λem = 605–625 nm). Damaged cells were excluded with the DAPI labeling. For each condition, 10,000 events were recorded.

[2] = test system: Caco-2 cells; assay: Cellular uptake of Tamra-labelled peptides by flow cytometry, Caco-2; format: cell-based, human; settings: for decrease in transfection efficiency with 10% serum / decrease in transfection efficiency with 20% serum: Tamra-peptides 5 µM, 3 h; for decrease in transfection efficiency with 10% serum: OptiMEM + 10% (v/v) FBS vs 0%; for decrease in transfection efficiency with 20% serum: OptiMEM + 20% (v/v) FBS vs 0%
Protocol: (§1) Next, 48 h post-seeding, cells were rinsed twice with D-PBS and then incubated with 500 μL of Tamra-CPP-iCAL36 solution at the indicated conditions.
(§2) Standard transfection and kinetic measurements.
(§3) Transfection in the presence of serum.

[3] = test system: Calu-3 cells; assay: Cellular uptake of Tamra-labelled peptides by flow cytometry, Calu-3; format: cell-based, human
Protocol: as §1, §2, §3

[4] = target: T1, TatRI-iCAL36 (N-terminal D-amino acid retro-inverso Tat (qpprrrqrrkkrg)); assay: fluorescence polarization
T1 chain: ANSRWPTSII

C[C@@H]1[C@H](O)[C@@H](C)/C=C/C=C/CC/C=C/C=C/C=C/C=C/C(O[C@H]2O[C@H](C)[C@@H](O)[C@H](N)[C@@H]2O)CC2O[C@](O)(CC(O)C(O)CCC(O)CC(O)CC(O)CC(=O)O[C@H]1C)CC(O)C2C(=O)O (some centres unmarked) [NYS, nystatin]
loss of viability (slight cytotoxicity) by endocytosis inhibitors [1]: 5–20%

CC[C@H](C)[C@H](NC(=O)[C@@H](NC(=O)[C@H](CO)NC(=O)[C@@H](NC(=O)[C@@H]1CCCN1C(=O)[C@H](Cc1c[nH]c2ccccc12)NC(=O)[C@H](CCCNC(=N)N)NC(=O)[C@H](CO)NC(=O)[C@H](CC(N)=O)NC(=O)[C@H](C)NC(=O)CNC(=O)[C@@H](CCCNC(=N)N)NC(=O)[C@@H](CCCCN)NC(=O)[C@@H](CCCCN)NC(=O)[C@@H](CCCNC(=N)N)NC(=O)[C@@H](CCCNC(=N)N)NC(=O)[C@@H](CCC(N)=O)NC(=O)[C@@H](CCCNC(=N)N)NC(=O)[C@@H](CCCNC(=N)N)NC(=O)[C@@H](CCCNC(=N)N)NC(=O)[C@H]1CCCN1C(=O)[C@H]1CCCN1C(=O)[C@H](N)CCC(N)=O)[C@@H](C)O)[C@@H](C)CC)C(=O)O [TatRI-iCAL36] (H-[dQ][dP][dP][dR][dR][dR][dQ][dR][dR][dK][dK][dR]GANSRWPTSII-OH)
intracellular fluorescence without vs with chloroquine, peptide at 1 µM ([2]; Tamra-TatRI-iCAL36 1 µM, CQ 100 µM, n = 4, one-way ANOVA): no statistical difference
decrease in transfection efficiency with 10% serum ([2]; 37 °C, n = 4): no significant difference
decrease in transfection efficiency with 20% serum ([2]; 37 °C, n = 4): 18%
increase in signal intensity (internalization) with longer incubation time (4.5 h) ([2]; Tamra-peptides in OptiMEM, 4.5 h vs […], 37 °C, n = 3 (Figure S2A)): ~ 3 fold

GALFLGWLGAAGSTMGAWSQPKKKRKV-ANSRWPTSII [MPG-iCAL36, MPG cell-penetrating peptide conjugated to iCAL36]
cellular internalization (Tamra fluorescence), comparison between peptides ([2]; Tamra-labelled peptides 1 µM or 5 µM in OptiMEM, […], 37 °C, trypsinization, mean ± SD, n = 4): superior to Tat-iCAL36 and its analogs
decrease in transfection efficiency with 10% serum ([2]; 37 °C, n = 4): ~ 30%
decrease in transfection efficiency with 20% serum ([2]; 37 °C, n = 4): ~ 50%
cellular internalization (Tamra fluorescence), comparison between peptides ([3]; Calu-3, Tamra-labelled peptides 1 µM or 5 µM in OptiMEM, […], 37 °C, trypsinization, flow cytometry, mean ± SD, n = 4): superior to Tat-iCAL36 and its analogs
decrease in transfection efficiency with 10% serum ([3]; Calu-3, Tamra-peptides 5 µM, 3 h, OptiMEM + 10% (v/v) FBS vs 0%, 37 °C, flow cytometry, n = 4): ~ 20%
decrease in transfection efficiency with 20% serum ([3]; Calu-3, Tamra-peptides 5 µM, 3 h, OptiMEM + 20% (v/v) FBS vs 0%, 37 °C, flow cytometry, n = 4): ~ 30%

GRKKRRQRRRPPQ-ANSRWPTSII (GRKKRRQRRRPPQANSRWPTSII) [Tat-iCAL36, Tat cell-penetrating peptide conjugated to the N-terminus of iCAL36]
increase in signal intensity (internalization) with longer incubation time (4.5 h) [3]: ~ 5.7 fold

B1: NHERF2 PDZ1 (N2P1) PDZ1 (protein)
chain: RPRLCRLVRGEQGYGFHLHGEKGRRGQFIRRVEPGSPAEAAALRAGDRLVEVNGVNVEGETHHQVVQRIKAVEGQTRLLVVDQETD
Ki [4]: > 5 mM

B2: NHERF2 PDZ2 (N2P2) PDZ2 (protein)
chain: LRPRLCHLRKGPQGYGFNLHSDKSRPGQYIRSVDPGSPAARSGLRAQDRLIEVNGQNVEGLRHAEVVASIKAREDEARLLVVDPETD
Ki [4]: > 5 mM
